Measured values taken from US11707474B2, “Methods for treating acute myeloid leukemia and related conditions” (GlycoMimetics, Inc., priority 2018, dated 2023).

How the values were obtained:
[1] = 5-FU induced mucositis assay; format: in vivo, Mice (C57bl/6); conditions: 20 mg/kg IP BID 4 days after second 5-FU injection
Protocol: Mice (C57bl/6) were treated with 150 mg/kg of 5-fluorouracil (5-FU) intraperitoneal (IP) on days 0 and 10. After the second injection of 5-FU, the mice were treated with a compound of Formula (I) (20 mg/kg in saline, IP, BID (i.e. 40 mg/kg per day)) or saline alone (0.15 M NaCl) for 4 days. Mice were then sacrificed and the small intestines were removed and weighed to determine the degree of inflammation. […] FIG. 1B illustrates that intestinal erosion, villous loss, and macrophage infiltration after administration of chemotherapy were ameliorated by concurrent administration of a compound of Formula (I).

MLL-AF9 leukemic cells = assay: Surviving LSC after high dose cytarabine, limiting dilution transplantation; format: in vivo, mice; conditions: with high dose cytarabine (2 x 900 mg/kg)
Protocol: Wild-type mice were transplanted with MLL-AF9 leukemic cells and following engraftment, treated with high dose cytarabine (2 doses of 900 mg/kg at a 12-hour interval (1800 mg/kg total)) alone or in combination with a compound of Formula (I). Bone-marrow cells were harvested 24 hours after treatment and the surviving functional LSCs were quantified by limiting dilution transplantation assays in irradiated wild-type syngeneic recipients. The proportion of recipients who developed leukemia was used to calculate the number of surviving LSC by Poisson's distribution.

KG1 cells = assay: Static adhesion of KG1 cells to E-selectin coated plates; format: cell-based, human; conditions: added post-binding of 5-azacytidine treated KG1 cells
Source text: These findings indicate that hypomethylating agents, including 5-azacytidine, may increase the adhesion of leukemic blasts in the bone marrow and therefore hinder the intended anti-leukemic effect. This could explain a source of chemoresistance, and potential for relapse, in patients treated with hypomethylating agents.

[2] = tested on: relapsed/refractory (R/R) acute myeloid leukemia (AML); assay: Phase 2 clinical outcomes, relapsed/refractory AML, sodium salt infusion with MEC; format: in vivo, human
Protocol: In this Phase 2 study related to the Phase 1 study described above (see Example 13), 47 additional subjects were administered the RP2D dose of 10 mg/kg/dose. The data of the 19 subjects in the 10 mg/kg/dose arm of the Phase 1 study was added to the data of these 47 additional subjects, resulting in data for 66 human subjects being considered in the Phase 2 study.
In detail, consistent with the Phase 1 study protocols, a total of 66 human subjects with relapsed/refractory (R/R) acute myeloid leukemia (AML) were selected for this study (i.e., the 19 subjects from the 10 mg/kg/dose arm of the Phase 1 study plus 47 additional subjects).
Whether as part of the Phase 1 study (for 19 of the subjects) or as an additional subject for the Phase 2 study, each subject received a total of 15 infusions of the RP2D dose of 10 mg/kg/dose of the compound of Formula (I), administered as the sodium salt, over 8 days with a nominal infusion duration of 20 minutes (either as part of the Phase 1 study for 19 subjects or as a new Phase 2). The formulation for the infusion solution was as follows: […]
The first dose of a compound of Formula (I) was administered 24 hours±1 hour prior to the first dose of MEC (mitoxantrone, etoposide, and cytarabine) induction chemotherapy as a sentinel dose to evaluate the effect of the compound of Formula (I) alone (i.e., a single dose of 10 mg/kg the day before the first chemotherapy day). The compound of Formula (I) was then administered every 12 hours±1 hour on chemotherapy days, starting 2 hours prior to chemotherapy (i.e., 20 mg/kg per day on chemotherapy days). […] MEC chemotherapy was administered on Days 2-6.
The clinical outcome for each subject was assessed at the time of count recovery following completion of induction chemotherapy. Subjects were assigned to one of four response groups: complete remission (“CR”); complete remission with incomplete count recovery (“CRi”); morphologic leukemia-free state (“MLFS”); persistent disease (“PD”). Complete remission was defined as bone marrow blasts <5%; absence of circulating blasts and blasts with Auer rods; absence of extramedullary disease; ANC ≥1.0×10^9/L and platelets ≥100,000×10^9/L. Complete remission with incomplete recovery was defined as: all CR criteria except for residual neutropenia (<1.0×10^9/L) or thrombocytopenia (<100,000×10^9/L). Morphologic leukemia-free state was defined as: bone marrow blasts <5%; absence of blasts with Auer rods; absence of extramedullary disease; no hematologic recovery required. Persistent disease was defined as: bone marrow blasts >5%.
Outcomes shown below provide data for Phase 1 (Example 13, all cohorts combined), Phase 2, and Total (Phase 1 and Phase 2) subject populations.

CC[C@@H]1CC(C(=O)NCCNC(=O)CCOCCOCCOCCOCCOCCOCCOCCOCCOCCOCCOCCOC)C[C@@H](O[C@@H]2O[C@@H](CO)[C@H](O)C(O[C@@H](CC3CCCCC3)C(=O)O)C2NC(C)=O)C1OC1O[C@@H](C)C(O)[C@H](O)[C@@H]1O (stereo partly drawn) [compound of Formula (I)]
gastrointestinal mucositis as measured by intestinal weight [1]: protects against chemotherapy induced gastrointestinal mucositis | intestinal erosion, villous loss, and macrophage infiltration [1]: ameliorated | increase of sensitivity of LSC to cytarabine treatment (MLL-AF9 leukemic cells): approximately 20 fold | uncoupling of adhesion (KG1 cells): ~90% | response rate (CR/CRi) ([2]; after a single course of induction treatment with MEC): over 40% | severe oral mucositis rate ([2]; with MEC): 2-3% | one-year survival rate, MRD negative subjects ([2]; with MEC, RP2D 10 mg/kg/dose): 73% | one-year survival rate, all subjects ([2]; with MEC, RP2D 10 mg/kg/dose): 35% | median overall survival ([2]; with MEC, RP2D 10 mg/kg/dose, 95% CI 5.7-11.4): 8.8 months
